Test results as given in patent publication US6617337B1, “Use of nitroxides for the treatment of essential hypertension” (Georgetown University, priority 1997, dated 2003).

Tests used:
Format in all cases: in vivo, rat
SHR [1] = assay: TGF response to SNAP microperfused into the macula densa during Tempol microperfusion via the efferent arteriole
Description: Two additional microperfusion studies were undertaken to assess the mechanism of Tempol action in SHR. […] A dose of 10^−6 M […] (SNAP), a NO donor compound, was microperfused into the macula densa of the rats. […] Other NO donor compounds include nitroprusside and nitrates.

SHR [2] = assay: Role of NO in the MAP response to constant Tempol infusion (L-NAME or norepinephrine pretreatment); conditions: for Change in MAP at 50 min (time control): separate group of SHR, NS
SHR and WKY rats [3] = assay: Maximal TGF responses (proximal stop flow pressure) during orthograde loop of Henle microperfusion of 7-NI (Series 4); conditions: for PSF difference 0-40 nl·min^−1 (maximal TGF response) / PSF during LH perfusion at 0 nl·min^−1 / PSF during LH perfusion at 40 nl·min^−1: ATF+7-NI 10^−4 M, mean ± SEM
Protocol: (§1) Series 4. Effects of inhibition of bNOS on maximal TGF responses in SHR and WKY. These experiments further examined the SHR hypertension model and whether the enhanced TGF of the SHR kidney is due to a blunted generation of NO by bNOS in the macula densa or whether NOS inhibition is diminished in the SHR model. Groups of SHR and age-matched WKY rats were prepared for in vivo micropuncture, microperfusion, and TGF studies as described in detail previously. In brief, animals were anesthetized with thiobarbital (Inactin, 100 mg·kg^−1; Research Biochemicals, Inc., Natick, Mass.). A catheter was placed in a jugular vein for fluid infusion and in a femoral artery for recording of mean arterial pressure (MAP) from the electrically damped output of a pressure transducer (Statham, Inc.). A tracheotomy tube was inserted and the animals were allowed to breathe spontaneously. The left kidney was exposed by a flank incision, cleaned of connective tissue, and stabilized in a Lucite cup. This kidney was bathed in 0.154 M NaCl maintained at 37° C. After completion of surgery, rats were infused with a solution of 0.154 M NaCl and 1% albumin at 1.5 ml·h^−1 to maintain a euvolemic state. Micropuncture studies were begun after 60 min for stabilization.
(§2) For orthograde microperfusion of the loop of Henle (LH), a micropipette (8 μm OD) containing artificial tubular fluid (ATF) stained with FD&C dye was inserted into a late proximal tubule. Injections of the colored ATF identified the nephron and the direction of flow. An immobile bone wax block was inserted into this micropuncture site via a micropipette (10-15 μm) and connected to a hydraulic drive (Trent Wells, Inc., LaJolla, Calif.) to halt tubular fluid flow. A perfusion micropipette (6-8 μm) containing ATF and test compounds or vehicle was inserted into the proximal tubule downstream from the wax block and connected to a nanoliter perfusion pump (WPI, Sarasota, Fla.). A pressure micropipette (1-2 μm) was inserted into the proximal tubule upstream from the wax block to measure proximal stop flow pressure (PSF). Changes in PSF are an index of changes in glomerular capillary hydraulic pressure (PGC). Measurements of PSF were made in each nephron during zero loop perfusion and during perfusion with ATF at 40 nl·min^−1, which produces a maximal TGF response, defined as the difference between PSF values recorded during perfusion of the loop with ATF at 0 and 40 nl·min^−1.
The maximal TGF responses were determined in SHR (n=4) and WKY rats (n=4) to perfusion of the LH with ATF+vehicle and contrasted with the maximal TGF responses during perfusion with ATF+7-nitroindazole (7-NI; 10^−4 M).

SHR rats = assay: TGF response to 7-NI microperfused into the macula densa before and during Tempol microperfusion into efferent arterioles
Description: This also implies that it had normalized the action of NO in this setting, thereby correcting the defect in the NO action in hypertension and restoring normal vascular control. This is filly consistent with its action on a free radical scavenging agent that thereby protects NO from radical attack.

SHR and WKY rats [4] = assay: Maximal TGF responses during orthograde microperfusion of L-arginine (Series 5); conditions: for PSF difference 0-40 nl·min^−1 (maximal TGF response) / PSF during LH perfusion at 0 nl·min^−1 / PSF during LH perfusion at 40 nl·min^−1: ATF+L-arginine 10^−3 M, mean ± SEM
Protocol: as §1, §2
Series 5: Maximal TGF responses during microperfusion of L-arginine in SHR and WKY. L-arginine had previously been shown not to lower blood pressure or the glomerular filtration rate in the SHR model. However, L-arginine can restore a TGF response to NOS blockade in tested rats adapted to low salt intake. Therefore, the role of L-arginine was tested in the SHR model. This series examined the effect of a reduced delivery of L-arginine to the macula densa on NO generation, as assessed in Series 4. Groups of SHR (n=4) and WKY rats (n=3) were prepared for microperfusion. PSF was recorded during orthograde LH perfusion at 0 and 40 nl·min^−1 with ATF+vehicle and ATF+L-arginine (10^−3 M). (Previous studies had shown that this was a maximally effective dose.)

## CC(=O)N[C@H](C(=O)O)C(C)(C)SN=O (racemic) [SNAP, 5-nitroacetylpenacillamine]
SHR [1]; SNAP 10^−6 M during Tempol 10^−4 M microperfusion via efferent arteriole, p<0.01
  Blunting of TGF response: more than 25%
SHR [1]; SNAP 10^−6 M into macula densa, without Tempol
  Effect of SNAP dose alone on TGF: just subthreshold

## COC(=O)[C@@H](N)CCCNC(=N)N[N+](=O)[O-] [L-NAME]
SHR [2]; SHR, twenty minutes of L-NAME infusion alone
  Increase in MAP: 18%
SHR [2]; SHR, twenty minutes of L-NAME infusion, from 158±11
  MAP after L-NAME infusion alone: 187±8 mm Hg
SHR [2]; L-NAME infusion
  Change in MAP at 50 min (time control): 0.3±3.3%

## NC[C@H](O)c1ccc(O)c(O)c1 [Norepinephrine, norepinephrine]
SHR [2]; SHR, norepinephrine 31 nmol·kg^−1·min^−1
  Increase in MAP: 15%
SHR [2]; SHR, norepinephrine 31 nmol·kg^−1·min^−1, from 164±4
  MAP after norepinephrine infusion: 188±7 mm Hg
SHR [2]; norepinephrine infusion
  Change in MAP at 50 min (time control): 2.0±0.0%

## O=[N+]([O-])c1cccc2cn[nH]c12 [7-NI, 7-nitroindazole]
SHR and WKY rats [3]; SHR, 7-NI added to orthograde LH perfusate
  Effect on TGF responses: no significant effects
SHR and WKY rats [3]; SHR
  PSF difference 0-40 nl·min^−1 (maximal TGF response): 12.5 ± 0.6 mm Hg
  PSF during LH perfusion at 0 nl·min^−1: 41.0 ± 1.0 mm Hg
  PSF during LH perfusion at 40 nl·min^−1: 29.3 ± 0.7 mm Hg
SHR and WKY rats [3]; WKY, 7-NI added to orthograde LH perfusate
  Average increase in maximal TGF response: 39%
SHR and WKY rats [3]; WKY
  PSF difference 0-40 nl·min^−1 (maximal TGF response): 13.2 ± 0.7 mm Hg
  PSF during LH perfusion at 0 nl·min^−1: 38.1 ± 0.8 mm Hg
  PSF during LH perfusion at 40 nl·min^−1: 25.0 ± 1.2 mm Hg
SHR rats; 7-NI 10^−4 M during Tempol 10^−4 M microperfusion into efferent arterioles
  Increase in TGF in the presence of 7-NI: greater than 25%
SHR rats; 7-NI 10^−4 M into macula densa, before Tempol
  TGF response to 7-NI before Tempol: no significant TGF response

## N=C(N)NCCC[C@H](N)C(=O)O [L-arginine]
SHR and WKY rats [4]; SHR
  PSF difference 0-40 nl·min^−1 (maximal TGF response): 10.6 ± 0.7 mm Hg
  PSF during LH perfusion at 0 nl·min^−1: 41.0 ± 1.2 mm Hg
  PSF during LH perfusion at 40 nl·min^−1: 30.4 ± 0.7 mm Hg
SHR and WKY rats [4]; SHR, L-arginine added to orthograde LH perfusate
  Effect on TGF responses: no significant effects
SHR and WKY rats [4]; WKY
  PSF difference 0-40 nl·min^−1 (maximal TGF response): 6.3 ± 0.4 mm Hg
  PSF during LH perfusion at 0 nl·min^−1: 36.1 ± 0.7 mm Hg
  PSF during LH perfusion at 40 nl·min^−1: 29.8 ± 0.5 mm Hg
SHR and WKY rats [4]; WKY, L-arginine added to orthograde LH perfusate
  Average blunting of TGF responses: 18%
